Reference: the NIST ThermoML archive (doi:10.1021/je034097r)

Details: Capillary rise

COC [dimethyl ether]
Details | surface tension liquid-gas [mN/m]
213.12 K | 24.52
223.11 K | 22.95
228.19 K | 22.26
233.31 K | 21.44
238.15 K | 20.75
243.12 K | 19.81
248.12 K | 19.3
253.09 K | 18.54
258.11 K | 17.71
263.12 K | 16.99
268.08 K | 16.27
273.08 K | 15.43
278.06 K | 14.6
283.07 K | 13.97
288.04 K | 13.16
293.09 K | 12.66
298.08 K | 11.73
303.2 K | 11
308.12 K | 10.22
313.12 K | 9.557
318.18 K | 9.089
323.18 K | 8.428
328.14 K | 7.64
333.14 K | 7.045
338.09 K | 6.368
343.13 K | 5.717
348.07 K | 5.148
353.11 K | 4.435
358.11 K | 3.94
363.1 K | 3.315
368.04 K | 2.779
